Source: patent US20130261066A1, “TREATMENT OF INFLAMMATORY BOWEL DISEASES USING A TRIPEPTIDE” (THE RESEARCH FOUNDATION OF STATE UNIVERSITY OF NEW YORK, priority 2010, published 2013)

Tests used:
Assay type in all cases: in vivo
[1] = test system: DSS-induced colitis; test: DSS-induced colitis in mice, MC12 40 or 80 μg/mouse ip (Example 1)
Method: (§1) Female C57BL/6 and SJL/J mice (Taconic, Hudson, N.Y.), 7-9 weeks old, were kept under controlled temperature (25° C.) with a 12/12-hour light-dark cycle and free access to standard diet and drinking water. The mice were allowed to acclimate for 7 days before the start of experiments.
The mice received 2% dextran sulfate sodium (DSS, MW 36,000 to 50,000, MP Biomedicals, Solon, Ohio) in drinking water for 7 days; control mice received regular drinking water. During the period when DSS was administered, treated mice were given MC12 40 or 80 μg/mouse intraperitoneally (i.p.) whereas the control group was given saline i.p. The mice were weighed and monitored for rectal bleeding or prolapse daily. All mice were euthanized at the end of the study. Blood samples were collected and colons were dissected and their length was measured. The middle part of colon was fixed in 4% neutralized formalin and the rest was frozen for molecular analyses.
Paraffin-embedded tissue sections were stained with hematoxylin and eosin (H&E). In these sections, the histological score was determined based on epithelial denudation, loss of crypts, ulceration, edema and leukocyte infiltration using criteria that have been described previously (see Perretti, F. et al., 2009, Nat Rev Immunol 9:62-70)

[2] = test system: DSS-induced colitis; test: DSS-induced colitis in mice, MC-12 5 or 25 mg/kg ip or po (Example 4); conditions: for reduction of histological score compared to DSS control: p<0.01
Method: as §1
The mice received 2% dextran sulfate sodium (DSS, MW 36,000 to 50,000, MP Biomedicals, Solon, Ohio) in drinking water for 8 days; control mice received regular drinking water. During the period when DSS was administered, treated mice were given MC-12 at 5 or 25 mg/kg intraperitoneally (ip) whereas the control group was given saline ip. As above, the mice were weighed and monitored for rectal bleeding or prolapse daily. All mice were euthanized at the end of the study period. Blood samples were collected and colons were dissected and their length was measured. The middle part of colon was fixed in 4% neutralized formalin and the rest was frozen for molecular analyses. Paraffin-embedded tissue sections were stained and scored as above.
The fixed colon was cut into six equal fragments, dehydrated and embedded into paraffin. The tissue sections were stained with hematoxylin and eosin (H&E). The histological score was determined by two pathologists as described, based on the degree (0-3) and extent (0-3) of inflammation, crypt damage (0-4) and the area involved (0-4). The scores of each of the first three parameters were multiplied by the fourth and the sum of these three multiples was the final score (ranging from 0 to 40).

[3] = test system: cytosolic phospholipase A2 (cPLA2); test: cPLA2 activity in colon tissue of DSS-treated mice
Excerpt: cPLA2 enzymes release fatty acids from the second carbon group of glycerol. This particular phospholipase specifically recognizes the sn-2 acyl bond of phospholipids and catalytically hydrolyzes the bond releasing a lysopospholipid and arachidonic acid; the latter is then modified by cyclooxygenases into active compounds called eicosanoids by cyclooxygenases. Eicosanoids include prostaglandins and leukotrienes which are categorized as inflammatory mediators. […] Treatment with MC12 decreased cPLA2 activity by 18% at 40 μg and 26% at the dose of 80 μg (p<0.05).
We also determined the activity of cytosolic phospholipase A2 (cPLA2) in colonic tissues from study mice. cPLA2s are enzymes that release fatty acids from the second carbon group of glycerol. This particular […] specifically recognizes the sn-2 acyl bond of phospholipids and catalytically hydrolyzes the bond releasing arachidonic acid and lysophospholipids, which are then modified into active compounds called eicosanoids by cyclooxygenases. Eicosanoids include prostaglandins and leukotrienes which are categorized as inflammatory mediators.
A cPLA2 assay kit (Cayman, Ann Arbor, Mich.) was used to determine cPLA2 activity following the instructions of the manufacturer. Briefly, a portion of colon tissue was homogenized in cold PBS and centrifuged at 10,000×g for 15 minutes and 10 μl of supernatant from each sample and 5 μl assay buffer were added into a 96-well microplate. The reaction was initialized by adding 200 μl substrate solutions to all wells and incubating for 5 min at room temperature. The fluorescence intensity was measured using a Multiplate Reader (Molecular Devices) at excitation at 485 nm, emission at 530 nm.

[4] = test system: IFN-γ; test: Colon cytokine mRNA by real-time PCR, DSS mice; conditions: MC-12 at either dose (5 or 25 mg/kg)
Method: (§2) Expression of inflammatory cytokines TNF-α, IFN-γ, IL-1β, IL-6 and IL-10 in the colon was determined by measuring corresponding mRNA levels using real-time PCR. About 100 mg colon tissue were placed in 1 ml of cold Trizol (Invitrogen Life Technologies, Carlsbad, Calif.), immediately homogenized with a rotor power homogenizer, and RNA was extracted according to the manufacturer's instructions. Total RNA was retrotranscribed with M-MLV reverse transcriptase (Invitrogen Life Technologies, Carlsbad, Calif.) using random primers. Real-time quantitative PCR was performed in a CFD-3200 Opticon detector (BioRad, Hercules, Calif., USA) using QuantiTect SYBR Green PCR Kits (Qiagen, Valencia Calif., USA). The PCR cycling conditions were: 40 cycles of 60 seconds at 94° C., 30 seconds at 51.4° C. and 30 seconds at 72° C. PCR primers (forward and reverse primers) were designed based on published sequences: TNF-α: AGGCTGCCCCGACTACGT (SEQ ID NO:12) and […] (SEQ ID NO:13); IFN-γ: CAGCAACAGCAAGGCGAAA (SEQ ID NO:14) and CTGGACCT GTGGGTTGTTGAC (SEQ ID NO:15); IL-1β: […] (SEQ ID NO:16) and […] (SEQ ID NO:17); IL-6: […] (SEQ ID NO:18) and […] (SEQ ID NO:19); […]: […] (SEQ ID NO:20) and […] (SEQ ID NO:21); β-actin: […] (SEQ ID NO:20) and […] (SEQ ID NO:21). Relative expression levels of mRNA were normalized to β-actin.

[5] = test system: IL-10; test: Colon cytokine mRNA by real-time PCR, DSS mice; conditions: MC-12 at either dose (5 or 25 mg/kg)
Method: as §2

[6] = test system: IL-1β; test: Colon cytokine mRNA by real-time PCR, DSS mice; conditions: MC-12 at either dose (5 or 25 mg/kg)
Method: as §2

[7] = test system: IL-6; test: Colon cytokine mRNA by real-time PCR, DSS mice; conditions: MC-12 at either dose (5 or 25 mg/kg)
Method: as §2

[8] = test system: TNF-α; test: Colon cytokine mRNA by real-time PCR, DSS mice; conditions: MC-12 at either dose (5 or 25 mg/kg)
Method: as §2

[9] = 2% DSS, MC12 40 or 80 μg/mouse ip

In the case of Gln-Ala-Trp (QAW) [MC12], the “DSS-induced colonic inflammation (H&E histology)” value ([1]; 40 μg per mouse ip) is reported as “significantly decreased DSS-induced colonic inflammation”, the “DSS-induced colonic inflammation (H&E histology)” value ([1]; 80 μg per mouse ip) is reported as “also decreased DSS-induced colonic inflammation” and the weight loss ([1]; 2% DSS 7 days, MC12 40 or 80 μg/mouse ip) is reported as “dose-dependent reduction in weight loss”. For the same substance, the “colon length (DSS-induced reduction)” value [1, 9] was “prevented this reduction in colon length in a dose-dependent manner”, the histological colitis score [1, 9] was “reduced the histological colitis score dose-dependently” and the “change in body weight” value ([1]; 2% DSS, higher dose 80 μg/day ip, day 7) was “essentially no change in their weight”. For the same substance, the “histological colitis score, significance of reduction” value ([1]; higher MC12 dose (80 μg)) was “statistically significant”, the “reduction of histological score compared to DSS control” value ([2]; 5 mg/kg ip) was 48.9% and the “DSS-induced colonic inflammation (H&E histology)” value ([2]; 25 mg/kg ip) was “significantly decreased DSS-induced colonic inflammation”. The “reduction of histological score compared to DSS control” value ([2]; 25 mg/kg ip) was 66.8%, the weight loss ([2]; 2% DSS 8 days, MC-12 5 or 25 mg/kg) was “prevented such weight loss in a dose-dependent manner” and the “colon length (DSS-induced reduction)” value ([2]; 2% DSS 8 days, MC-12 5 or 25 mg/kg, ip and po) was “prevented this reduction in colon length in a dose-dependent manner”. For the same substance, the “prevention of weight loss, ip compared to po” value ([2]; 2% DSS 8 days, ip vs po) was “more effective in preventing weight loss when given ip compared to po”, the “decrease of cPLA2 activity” value ([3]; MC12 40 μg) was 18% and the “decrease of cPLA2 activity” value ([3]; MC12 80 μg, p<0.05) was 26%. The “decrease of cPLA2 activity” value ([3]; MC-12 5 mg/kg) was 18%, the “decrease of cPLA2 activity” value ([3]; MC-12 25 mg/kg, p<0.05) was 24% and the “IFN-γ mRNA level in colon” value [4] was “below baseline”. For the same substance, the “IL-10 mRNA level in colon” value [5] was “below baseline”, the “IL-1β mRNA level in colon” value [6] was “essentially normalized” and the “IL-6 mRNA level in colon” value [7] was “below baseline”. For the same substance, the “TNF-α mRNA level in colon” value [8] was “essentially normalized”.
